Entries after “also recorded” stand apart in the source; their conditions may differ.

Experiment [1] concerns HsubOR13/HsubOrco. Nature of the experiment: HsubOR13/HsubOrco co-expressed in Xenopus oocytes, two-electrode voltage clamp. The note with it: 10^-4 M solution. (In two-electrode clamp one electrode senses voltage and the other passes current.)
Protocol: (§1) Stock solutions (1 M) were dissolved in dimethyl sulfoxide (DMSO) and stored at −20°C. Before experiments, the stock solution was diluted in 1 × Ringer's buffer (96 mM NaCl, 2 mM KCl, 5 mM MgCl2, 0.8 mM CaCl2 and 5 mM HEPES, pH 7.6) to working concentration of 10^−4 M. 1 × Ringer's buffer containing 0.1% DMSO was used as a negative control.
(§2) The vectors contain the full ORF of all ORs were linearized to prepare the templates and the cRNA was synthesized with mMESSAGE mMACHINE SP6 (Ambion). Stage V to VII oocytes were treated with 2 mg/mL collagenase I (GIBCO, Carlsbad, CA) in 1 × Ca^2+-free washing buffer (96 mM NaCl, 2 mM KCl, 5 mM MgCl2 and 5 mM HEPES, pH 7.6) for about 1 h at room temperature. After being cultured overnight at 18°C, oocytes were then microinjected with 27.6 ng of Orco cRNA and 27.6 ng of ORs cRNA. Oocytes microinjected with 55.2 ng of Orco were used as negative controls. Injected oocytes were incubated for 4–7 days at 18°C in 1 × washing buffer (96 mM NaCl, 2 mM KCl, 5 mM MgCl2, 0.8 mM CaCl2 and 5 mM HEPES, pH 7.6) supplemented with 5% dialysed horse serum, 50 mg/mL tetracycline, 100 mg/mL streptomycin and 550 mg/mL sodium pyruvate.
(§3) Whole-cell currents were recorded with a two-electrode voltage clamp from the injected oocytes. Odorant-induced currents were recorded with an OC-725C oocyte clamp (Warner Instruments, Hamden, CT, USA) at a holding potential of −80 mV. […]
The subject of experiment [2] is HsubOR16/HsubOrco. Description: HsubOR16/HsubOrco co-expressed in Xenopus oocytes, two-electrode voltage clamp. The note with it: 10^-4 M solution.
Protocol: as §1, §2, §3
Experiment [3] deals with HvirOR6 mutants VM1, VM2, VM3, VM4, VM12, VM15, VM16, VM20, VM23, VM24, VM29, and VM31. The experiment is classed as cell-based, Heliothis virescens. The note with it: 10^-4 M, 12 mutants VM1, VM2, VM3, VM4, VM12, VM15, VM16, VM20, VM23, VM24, VM29, VM31.
Experiment [4] addresses HsubOR6/HsubOrco (Heliothis subflexa, UniProt A0A8E4MSQ8). Nature of the experiment: HsubOR6/HsubOrco co-expressed in Xenopus oocytes, two-electrode voltage clamp. In kind it is cell-based. As to conditions: for response of receptor to compound: 10^-4 M solution.
The test system of experiment [5] is chimeric OR6s (VSS, SVV, VVS, and SSV). In kind it is cell-based, Heliothis virescens, Heliothis subflexa.
Experiment [6] has as its system HvirOR6 mutants VM5, VM7, VM10, VM11, VM13, VM14, VM17, VM21, VM22, and VM30. In kind it is cell-based, Heliothis virescens. The note with it: 10^-4 M, 10 mutants VM5, VM7, VM10, VM11, VM13, VM14, VM17, VM21, VM22, VM30.
In experiment [7] the target is HvirOR6/HvirOrco (Heliothis virescens, UniProt Q8MMI0). Nature of the experiment: HvirOR6/HvirOrco co-expressed in Xenopus oocytes, two-electrode voltage clamp. In kind it is cell-based. The note with it: for response of receptor to compound / response (inward current): HvirOR6/HvirOrco Xenopus oocytes; for response (inward current): concentration of 10^-4 M.
In experiment [8] the test system is HvirOR6 mutant VM18. The experiment is classed as cell-based, Heliothis virescens. The note with it: 10^-4 M.
Experiment [9] deals with VM321 (HvirOR6 L321V, VM6) (Heliothis virescens, UniProt Q8MMI0, L321V). Description: cell-based. In kind it is cell-based. As to conditions: for response of mutant receptor to compound: 10^-4 M, HvirOR6 L321V (VM6/VM321).
Experiment [10] concerns HvirOR6 mutant VM19. The experiment is classed as cell-based, Heliothis virescens. The note with it: 10^-4 M.
Experiment [11] deals with SM321 (HsubOR6 V321L) (Heliothis subflexa, UniProt A0A8E4MSQ8, V314L). Description: cell-based. The experiment is classed as cell-based. The note with it: for response of mutant receptor compared with HsubOR6: 10^-4 M, HsubOR6 V321L (SM321).
Experiment [12] deals with HsubOR14/HsubOrco. Description: HsubOR14/HsubOrco co-expressed in Xenopus oocytes, two-electrode voltage clamp. The note with it: 10^-4 M solution.
Protocol: as §1, §2, §3
Experiment [13] has as its system HvirOR6 mutants VM9 and VM25. The experiment is classed as cell-based, Heliothis virescens. The note with it: 10^-4 M.
For experiment [14], the system named is HvirOR6 mutants VM8, VM26, VM27, and VM28. The experiment is classed as cell-based, Heliothis virescens. The note with it: 10^-4 M.

Sequence of HsubOR6/HsubOrco (A0A8E4MSQ8 1-424): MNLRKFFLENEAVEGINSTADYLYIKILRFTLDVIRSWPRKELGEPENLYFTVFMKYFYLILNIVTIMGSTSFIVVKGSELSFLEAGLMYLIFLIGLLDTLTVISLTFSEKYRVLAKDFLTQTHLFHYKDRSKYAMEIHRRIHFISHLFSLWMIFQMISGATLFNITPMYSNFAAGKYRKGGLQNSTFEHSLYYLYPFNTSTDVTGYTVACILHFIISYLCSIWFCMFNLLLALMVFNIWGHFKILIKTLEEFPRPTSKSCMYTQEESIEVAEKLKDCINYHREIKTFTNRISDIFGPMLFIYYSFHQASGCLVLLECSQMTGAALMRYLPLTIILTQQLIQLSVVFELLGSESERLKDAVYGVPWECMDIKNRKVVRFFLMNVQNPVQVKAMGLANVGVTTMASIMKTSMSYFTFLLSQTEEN

As for `CCCC/C=C\CCCCCCCCCC=O` [Z11-16:Ald, (Z)-11-hexadecenal], in experiment [1], the “response of receptor to compound” value was “specifically responded”.

With `CCCC/C=C\CCCCCCCCCCO` [Z11-16:OH, (Z)-11-hexadecen-1-ol], the “response of receptor to compound” value in experiment [2] is recorded as “responded robustly”.

As usually defined, the EC50 is the concentration giving half of the maximal effect. In the case of `CCCCCC/C=C\CCCCCCCC=O` [Z9-16:Ald, (Z)-9-hexadecenal], the entries for the “response of HvirOR6 mutants compared with HvirOR6” value in [3] and in [6] were “significant decrease in the response” and “did not have altered responses”, respectively. In addition, the “response of receptor to compound” value is “responded; also recorded: specifically responsive” in [4] and “responsive” in experiment [7]. For the same compound, the “average response (inward current)” value in experiment [4] (concentration of 10^-4 M) is 184.04 nA. The EC50 in [4] (holding potential -80 mV, read-out: EC50 (dose-response of inward current)) stood at 46.3 µM; in [7], 24.8 µM; in experiment [9], 40.8 µM; in experiment [11], 20.4 µM. Besides, the “response of chimeric OR6s compared with original sequences” value in experiment [5] is listed as “decreased significantly”. For the same compound, the “response (inward current)” value in experiment [7] was 187.44 nA. Moreover, the “response of HvirOR6 mutant compared with HvirOR6” value is reported as “increased response” in [8] and “decreased response” in experiment [10]. For the same compound, the “response of mutant receptor to compound” value in [9] was “retaining the response”. Further, in experiment [11], the “response of mutant receptor compared with HsubOR6” value is listed as “increased”.

With `CCCC/C=C\CCCCCCCCCCOC(C)=O` [Z11-16:OAc, (Z)-11-hexadecenyl acetate], in experiment [12], the “response of receptor to compound” value is given as “specifically activated”.

As for `CCCC/C=C\CCCCCCCC=O` [Z9-14:Ald, (Z)-9-tetradecenal], the “response of HvirOR6 mutants compared with HvirOR6” value is recorded as “significant decrease in the response” in experiment [3], “decreased responses” in [13], “did not have altered responses” in experiment [6] and “increased responses” in experiment [14]. For the same compound, the “response of receptor to compound” value was “little if any response; also recorded: lost its ability to recognize” in experiment [4] and “responsive” in experiment [7]. The “response of chimeric OR6s compared with original sequences” value in experiment [5] was “decreased significantly”. Also, the “response to Z9-14:Ald relative to that to Z9-16:Ald” value in experiment [7] (10^-4 M, HvirOR6) is reported as “about 8.23 times”. The “response (inward current)” value in experiment [7] is reported as 1,541.96 nA. In addition, the “response of mutant receptor to compound” value in experiment [9] is “lost its response; also recorded: lost its ability to bind”. For the same compound, the “response of mutant receptor compared with HsubOR6” value in experiment [11] is recorded as “remained unchanged”.
